Test results reported in article PMC10460844, “Real‐Time Monitoring of Multitarget Antimicrobial Mechanisms of Peptoids Using Label‐Free Imaging with Optical Diffraction Tomography” (Advanced Science, 2023).
Values after ≈ are worked out from the molar mass of the structure shown. Structures can show the parent of a compound that is named as a salt. Where two headings read alike, the source gives them in different places. Square brackets hold non-standard residues; d marks the D form. Peptide text beside a SMILES is read from it. Nspe = C[C@H](NCC(=O)O)c1ccccc1; Nlys = NCCCCNCC(=O)O

Key:
E. faecalis KCTC 3511 = format: cell-based; conditions: KCTC 3511
S. aureus ATCC 25923 = format: cell-based, Staphylococcus aureus
Protocol: (§1) The antibacterial activity of the peptoids was evaluated against gram‐positive (Staphylococcus aureus, ATCC 25 923) and gram‐negative (Escherichia coli, ATCC 25 922) bacteria. […] The MIC of each peptoid was determined using a broth dilution assay. For each assay, the primary culture of either S. aureus or E. coli was grown overnight in cation‐adjusted Mueller Hinton broth 2 (MHB2) media at 37 °C with shaking. A secondary culture was prepared the next day, grown for 3–4 h, and then diluted in MHB2 media with a final concentration of 0.001% acetic acid and 0.02% bovine serum albumin to obtain a calculated optical density (OD) of 0.001. This corresponded to ≈2–5 × 10^5 colony‐forming units (CFU mL^−1) of bacteria. Using 96‐well polypropylene plates (Eppendorf, Hamburg, Germany), 100 µL of 2–5 × 10^5 CFU mL^−1 bacteria were added in triplicate for each peptoid. Each peptoid was assayed at six different concentrations in two‐fold serial dilutions. The maximum peptoid concentration was 25 µM. […] The MIC value determination was performed in triplicate. The MIC was defined as the lowest peptoid concentration that prevented turbidity during visual inspection.

rat erythrocytes = experiment: Hemolysis assay; format: cell-based
Procedure, shortened: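 Washed Sprague-Dawley rat erythrocytes (10% suspension in PBS pH 7.4) mixed with peptoids (0–100 µM), 60 min at 37 °C; supernatant A540 expressed as % of 1% Triton X-100 lysis. HC10/HC50 are concentrations giving 10%/50% hemolysis; Hmax is hemolysis at 100 µM.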

[1] = Analytical reversed-phase HPLC elution (hydrophobicity); format: physicochemical; conditions: Table 1; analytical RP-HPLC, SunFire C18 […] 250 mm, water/ACN + 0.1% TFA, 5% B 2 min then linear to 100% B over 30 min, 1 mL/min, UV 220 nm; used as measure of hydrophobicity
Procedure, shortened: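 Analytical reversed-phase HPLC on a C18 column (4.6 × 250 mm, 5 μm) at 1 mL/min, water/acetonitrile each with 0.1% TFA. Held at 5% B for 2 min, then linear to 100% B over 30 min and held 5 min, with UV detection at 220 nm; retention time (tR) serves as hydrophobicity measure.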

E. coli ML-35 cells = experiment: ONPG hydrolysis assay (inner membrane); format: cell-based; conditions: 1.5 mM ONPG, 10 mM sodium phosphate pH 7.4, absorbance 405 nm
Protocol: The permeability of the inner membrane was determined using E. coli ML-35 cells […]
The intact bacterial inner membrane is non-permeable to o-nitrophenyl-β-D-galactopyranoside (OPNG), a chromogenic substrate of the β-galactosidase.
Following damage to the inner membrane, OPNG enters the cells and is metabolized by β-galactosidase creating a chromogenic […]. E. coli cells were washed in 10 mM sodium phosphate (pH 7.4) containing 100 mM NaCl and resuspended in the same buffer at a final concentration of OD600 = 0.5 containing 1.5 mM ONPG. The hydrolysis of ONPG and generation of o-nitrophenol over time were monitored as absorbance change at 405 nm following the addition of peptoids. […]

S. typhimurium SL 1344 = format: cell-based; conditions: SL 1344
E. faecium KCTC 13225 = format: cell-based; conditions: KCTC 13225
E. coli ATCC 25922 [2] = format: cell-based, Escherichia coli; conditions: mean of triplicate
Protocol: as §1

E. coli ATCC 25922 [3] = experiment: NPN uptake assay (outer membrane); format: cell-based; conditions: E. coli ATCC 25922, 5 mM HEPES pH 7.2, 10 µM NPN, fluorescence
Protocol: 14. In vitro biological assays […]
The ability of peptoids to increase the permeability of the outer membrane of Gram-negative bacteria was determined by measuring the incorporation of the NPN fluorescent dye into the outer membrane of E. coli ATCC 25922. Bacterial cells were suspended to a final concentration of OD600 = 0.05 in 5 mM HEPES buffer, pH 7.2, containing 5 mM KCN. Then […]
200 μL NPN dye was added to wells of a 96 well plate to produce a final concentration of 10 μM, and the background fluorescence was recorded (λex = 350 nm, λem = 420 nm). Aliquots of peptoids were added to the well, and fluorescence was recorded as a function of time until there was no further increase in fluorescence. Increases of the permeability of the outer membrane after the addition of peptoids was reflected by increased fluorescence values as a result of NPN incorporation into the membrane. […]

[4] = tested on: MRC-5 human lung fibroblast cells; format: cell-based; conditions: Table S3, counter-ion exchange series; MTS assay, 24 h
Protocol: 4. Cell culture and cytotoxicity test using MTS assay
(Seoul, South Korea), human keratinocytes (HaCaT) were provided by the Skin Research Institute R&D Center of Amore Pacific Company (Yongin, South Korea). All cells were grown in Dulbecco's modified Eagle’s medium (DMEM) supplemented with 10% fetal bovine serum at 37 °C in an atmosphere containing 5% CO2. The 3-(4,5-dimethylthiazol-2- […]
assays were used to determine the effects of peptoids on cell growth.[4] Aliquots (100 µL) of media containing 1.3×10^4 MRC-5 cells/mL or 3×10^4 HaCaT cells/mL were distributed into each well of a 96-well plate (Eppendorf, Hamburg, Germany). The cells were allowed to attach and were grown in a humidified atmosphere containing 5% CO2 at 37 °C for 24 h.
When the cell density reached approximately 70% confluency, the medium was replaced with serial dilutions of the peptoid stock in DMEM and incubated for an additional 24 h. At this point, 20 µL of the CellTiter 96 aqueous non-radioactive cell proliferation assay reagent (Promega, Madison, WI, USA), which contains the tetrazolium compound, was added to each well. Plates were incubated for 4 h at 37 °C to allow time for metabolism. The MTS-formazan products in viable cells were measured at 490 nm using a microplate reader, and the percentage of cell viability (%) was calculated by comparing readings to the values of untreated wells. Percentage values of cell viability were calculated as A/(A control)×100, where A is the absorbance of the test well and A control is the average absorbance of wells containing untreated cells. […]

[5] = Table S2, broth dilution, MHB2, 37 °C 24 h, max 25 µM, mean of triplicate
[6] = Table S2, broth dilution, MHB2, 37 °C 24 h, max 25 µM
[7] = Table S3, counter-ion exchange series (TFA, HCl, AcOH salts)
[8] = Table S3, counter-ion exchange series, mean of triplicate
[9] = Table S3, counter-ion exchange series, 10% hemolysis in rat erythrocytes, mean of triplicate
[10] = Table S3, counter-ion exchange series, 50% hemolysis in rat erythrocytes, mean of triplicate
[11] = Table S3, counter-ion exchange series, hemolysis at 100 µM

| SMILES | MIC E. faecalis KCTC 3511 (E. faecalis KCTC 3511) [µM] | MIC S. aureus ATCC25923 (S. aureus ATCC 25923; ATCC 25923) [µM] | MIC S. aureus ATCC25923 (S. aureus ATCC 25923; [5]) [µM] | H max (100 µM) (rat erythrocytes) [%] | Hmax (100 µM) (rat erythrocytes) [%] | HC10 (rat erythrocytes; red cells of rat) [µM] | HC50 (rat erythrocytes; red cells of rat) [µM] | HPLC elution (%ACN) [1] [%ACN] | inner membrane disruption (ONPG hydrolysis) (E. coli ML-35 cells) | MIC S. typhimurium SL 1344 (S. typhimurium SL 1344) [µM] | MIC E. faecium KCTC 13225 (E. faecium KCTC 13225) [µM] | MIC E. coli ATCC25922 (E. coli ATCC 25922 [2]; [6]) [µM] | MIC E. coli ATCC25922 (E. coli ATCC 25922 [2]; [7]) [µM] | outer membrane disruption (NPN uptake) (E. coli ATCC 25922 [3]) | MIC S. aureus ATCC25923 (S. aureus ATCC 25923; [8]) [µM] | HC10 (rat erythrocytes; [9]) [µM] | HC50 (rat erythrocytes; [10]) [µM] | Hmax (100 µM) (rat erythrocytes; [11]) [%] | LC50 MRC-5 [4] [µM] | also measured |
| --- | --- | --- | --- | --- | --- | --- | --- | --- | --- | --- | --- | --- | --- | --- | --- | --- | --- | --- | --- | --- |
| C[C@@H](c1ccccc1)N(CC(N)=O)C(=O)CN(C(=O)CN(CCCCN)C(=O)CN(C(=O)CN(C(=O)CN(CCCCN)C(=O)CN(C(=O)CN(C(=O)CN(CCCCN)C(=O)CN(CCc1c[nH]c2ccccc12)C(=O)CN(CCc1c[nH]c2ccccc12)C(=O)CNCCCCN)[C@@H](C)c1ccccc1)[C@@H](C)c1ccccc1)[C@@H](C)c1ccccc1)[C@@H](C)c1ccccc1)[C@@H](C)c1ccccc1 [peptoid 14] | 1.6 (≈ 3.04 µg/mL) | 1.6 (≈ 3.04 µg/mL) | < 0.8 | 90.0 ± 7.3 | 112.9±2.1 | 12.5 | 21.1 | 55.6 | strongly disrupted | 12.5 (≈ 23.7 µg/mL) | <0.8 | 3.1 (≈ 5.88 µg/mL) | 3.1 | strongly disrupted | – | – | – | – | – | – |
| C[C@@H](c1ccccc1)N(CC(N)=O)C(=O)CN(C(=O)CN(CCCCN)C(=O)CN(C(=O)CN(C(=O)CN(CCCCN)C(=O)CN(C(=O)CN(C(=O)CN(CCCCN)C(=O)CN(C(=O)CN(C(=O)CNCCCCN)[C@@H](C)c1ccccc1)[C@@H](C)c1ccccc1)[C@@H](C)c1ccccc1)[C@@H](C)c1ccccc1)[C@@H](C)c1ccccc1)[C@@H](C)c1ccccc1)[C@@H](C)c1ccccc1 [1-AcOH] (H-[Nlys][Nspe][Nspe][Nlys][Nspe][Nspe][Nlys][Nspe][Nspe][Nlys][Nspe][Nspe]-NH2) | – | – | – | – | – | – | – | – | – | – | – | – | 12.5 | – | 3.1 (≈ 5.64 µg/mL) | 25.0 | 78.6 | 58.2±1.7 | 8.6 | – |
| C[C@@H](c1ccccc1)N(CC(N)=O)C(=O)CN(C(=O)CN(CCCCN)C(=O)CN(C(=O)CN(C(=O)CN(CCCCN)C(=O)CN(C(=O)CN(C(=O)CN(CCCCN)C(=O)CN(CCc1c[nH]c2ccccc12)C(=O)CN(C(=O)CNCCCCN)[C@@H](C)c1ccccc1)[C@@H](C)c1ccccc1)[C@@H](C)c1ccccc1)[C@@H](C)c1ccccc1)[C@@H](C)c1ccccc1)[C@@H](C)c1ccccc1 [peptoid 10] | 12.5 (≈ 23.2 µg/mL) | 0.8 (≈ 1.49 µg/mL) | 1.6 (≈ 2.97 µg/mL) | 108.1 ± 1.7 | 101.4±5.1 | 6.9 | 25.8 | 54.9 | strongly disrupted | 12.5 (≈ 23.2 µg/mL) | 12.5 (≈ 23.2 µg/mL) | 3.1 (≈ 5.76 µg/mL) | 3.1 | strongly disrupted | – | – | – | – | – | HC10 (rat erythrocytes; pH 7.4): 6.6 µM; HC50 (rat erythrocytes; pH 7.4): 17.0 µM |
| C[C@@H](c1ccccc1)N(CC(N)=O)C(=O)CN(C(=O)CN(CCCCN)C(=O)CN(C(=O)CN(C(=O)CN(CCCCN)C(=O)CN(C(=O)CN(C(=O)CN(CCCCN)C(=O)CN(C(=O)CN(C(=O)CNCCCCN)[C@@H](C)c1ccccc1)[C@@H](C)c1ccccc1)[C@@H](C)c1ccccc1)[C@@H](C)c1ccccc1)[C@@H](C)c1ccccc1)[C@@H](C)c1ccccc1)[C@@H](C)c1ccccc1 [1-HCl] (H-[Nlys][Nspe][Nspe][Nlys][Nspe][Nspe][Nlys][Nspe][Nspe][Nlys][Nspe][Nspe]-NH2) | – | – | – | – | – | – | – | – | – | – | – | – | 6.3 | – | 1.6 | 27.6 | 83.3 | 61.5±0.9 | 11.8 | – |
